From patent publication US10172581B2, “Methods of assessing tumor growth” (Dana-Farber Cancer Institute, Inc., priority 2013, dated 2019)
Read-outs that look alike come from different tables or passages of the source.

Key:
[1] = system: stage IV lung adenocarcinoma; test: CT follow-up of a lung adenocarcinoma patient on crizotinib (FIG. 4); type: in vivo, human; details: person, 8 weeks
[2] = system: NSCLC with sensitizing EGFR mutations (dominant measurable lung lesion); details: for tumor volume: same patient
Method: Patients provided informed consent and their records were retrospectively reviewed with IRB approval.
Baseline and follow-up CT scans were performed to determine response to EGFR-TKI using the clinical chest CT protocol [31]. Follow-up CT scans were performed every 8 weeks for 33 patients enrolled in prospective trials of EGFR-TKI, and at the discretion of the treating providers for 25 patients treated off protocol [5,25,45-47]. […] The nadir (the smallest tumor volume recorded from baseline to TKI termination/last follow-up) was determined for each patient.
1, 2012, were analyzed. Demographics and disease characteristics were summarized with descriptive statistics. A linear mixed effects model, fitting time as a random effect [48], was fitted to the repeated measures of volume data to estimate the effect of time and other prognostic factors on tumor growth. The tumor volume (mm^3) was transformed to the natural logarithm scale, and the logarithm of tumor volume (logeV) was used. The first model was built adjusting only for time in months from baseline. Since the baseline volume (logeV0; the tumor volume measured on the baseline scan performed before the initiation of TKI therapy) may influence the tumor volume and its growth rate, the second model was adjusted for time and logeV0.

Compound	change of lung lesion on CT [1]	tumor volume at nadir ([2]; person, stage IV lung adenocarcinoma, 4 month of therapy, baseline 25,016 mm^3)	tumor volume ([2]; 5 month, regrowth after nadir)	tumor volume ([2]; 7 month)
C[C@@H](Oc1cc(-c2cnn(C3CCNCC3)c2)cnc1N)c1c(Cl)ccc(F)c1Cl [crizotinib]	marked decrease of the lesion and nodular pericardial thickening	–	–	–
C#Cc1cccc(Nc2ncnc3cc(OCCOC)c(OCCOC)cc23)c1 [erlotinib]	–	5,288 mm^3	7,490 mm^3	12,922 mm^3
